According to patent publication US20090227450A1, “Triazole-Based Fungicidal Mixtures” (BASF Aktiengesellschaft, priority 2005, published 2009):

System: Botrytis cinerea
Experiment: Activity against the gray mold pathogen Botrytis cinerea in the microtiter test (Botrci)
Format: cell-based
Conditions: microtiter plate, 405 nm, day 7 after inoculation
Protocol: The expected efficacies of active compound combinations were determined using Colby's formula (Colby, S. R. “Calculating synergistic and antagonistic responses of herbicide combinations”, Weeds, 15, 20-22, 1967) and compared with the observed efficacies.
E=x+y−x·y/100 • E expected efficacy, expressed in % of the untreated control, when using the mixture of the active compounds A and B at the concentrations a and b • x efficacy, expressed in % of the untreated control, when using the active compound A at the concentration a • y efficacy, expressed in % of the untreated control, when using the active compound B at the concentration b
The active compounds were formulated separately as a stock solution having a concentration of 10 000 ppm in DMSO.
The active compound epoxiconazole was used as a commercial formulation.
The stock solution is pipetted onto a microtiter plate (MTP) and diluted to the stated active compound concentration using a malt-based aqueous nutrient medium for fungi. An aqueous spore suspension of Botrytis cinerea was then added. The plates were placed in a water vapor-saturated chamber at temperatures of 18° C. Using an absorption photometer, the MTPs were measured at 405 nm on day 7 after the inoculation. The measured parameters were compared to the growth of the active compound-free control variant and the fungus- and active compound-free blank value to determine the relative growth in % of the pathogens in the individual active compounds.
The visually determined values for the percentage of infected leaf area were initially converted into a mean value and then converted into efficacies in % of the untreated control. An efficacy of 0 means the same degree of infection as in the untreated control, an efficacy of 100 means 0% infection. The expected efficacies for active compound combinations were determined using Colby's formula (Colby, S. R. (Calculating synergistic and antagonistic responses of herbicide combinations”, Weeds, 15, pp. 20-22, 1967) and compared to the observed efficacies.

SMILES	Observed effect (%) (conc. 0.016 ppm)	Observed effect (%) (conc. 0.063 ppm)	Observed effect (%) (conc. 0.004 ppm)	Observed effect (%) (conc. 0.25 ppm)
Fc1ccc(C2(Cn3cncn3)OC2c2ccccc2Cl)cc1 (stereo not shown) [Epoxiconazole, epoxiconazole]	15	48	–	–
CO/C=C(/C(=O)OC)c1ccccc1COc1cccc(C(F)(F)F)n1 [Picoxystrobin, picoxystrobin]	–	–	0	3
